This note sets out measurements from patent publication US4267180A, “Novel antibacterial amide compounds and process means for producing the same” (Warner-Lambert Company, priority 1980, dated 1981).

A value given as a limit tells only on which side of the number the result lay.

Test in all cases: Minimal Inhibitory Concentration, in vitro
What all share (format): cell-based
Holding throughout (design): unit not given here

Experiment [1] has as its system Enterobacter Cloacae IMM-11. From the text: (§1) The compounds of the invention are new chemical compounds that are useful as pharmacological agents and especially as broad spectrum antibacterial agents. They are active in vitro against strains of both gram-positive and gram-negative bacteria.
(§2) Minimal Inhibitory Concentration

The subject of experiment [2] is Klebsiella Pneumoniae MGH-2.
Text: as §1, §2

The subject of experiment [3] is Staph Aureus UC-76.
Text: as §1, §2

Experiment [4] has as its system Serratia Marcescens IMM-16.
Text: as §1, §2

Experiment [5] has as its system Pseudomonas Aeruginosa #28.
Text: as §1, §2

The test system of experiment [6] is Proteus Vulgaris 1810.
Text: as §1, §2

In experiment [7] the test system is Pseudomonas Aeruginosa UI-18.
Text: as §1, §2

As for `CC(=O)NCCCCC(NC(C)=O)C(=O)Nc1ccc(-c2ncc(C(=O)N[C@@H](C(=O)N[C@@H]3C(=O)N4[C@@H]3SC(C)(C)[C@@H]4C(=O)O)c3ccc(O)cc3)c(O)n2)cc1` (mixture of isomers) [N,N'-Diacetyl-DL-Lysyl, N-[2-[4-(N,N'-Diacetyl-DL-lysylamino)phenyl]-4-hydroxy-5-pyrimidinylcarbonyl]amoxicillin], the “Minimal Inhibitory Concentration” value is reported as 25 in experiment [1]; more than 50 in experiment [2]; 1.6 in experiment [3]; 50 in experiment [4]; 1.6 in experiment [5]; 6.3 in experiment [6]. The “Minimal Inhibitory Concentration” value in experiment [7] is 3.1.

For `CC(=O)NC(C)C(=O)Nc1ccc(-c2ncc(C(=O)N[C@@H](C(=O)N[C@@H]3C(=O)N4[C@@H]3SC(C)(C)[C@@H]4C(=O)O)c3ccc(O)cc3)c(O)n2)cc1` (mixture of isomers) [N-Acetyl-DL-Alanyl, N-[2-[4-(N-Acetyl-DL-alanylamino)phenyl]-4-hydroxy-5-pyrimidinyl-carbonyl]amoxicillin], the “Minimal Inhibitory Concentration” value stood at 6.3 in experiment [1]; 25 in experiment [2]; 0.2 in experiment [3]; 6.3 in experiment [4]; 1.6 in experiment [5]; 0.8 in experiment [6]. The “Minimal Inhibitory Concentration” value in experiment [7] is 1.6.

For the compound `CC(=O)NC(CC(C)C)C(=O)Nc1ccc(-c2ncc(C(=O)N[C@@H](C(=O)N[C@@H]3C(=O)N4[C@@H]3SC(C)(C)[C@@H]4C(=O)O)c3ccc(O)cc3)c(O)n2)cc1` (mixture of isomers) [N-Acetyl-DL-Leucyl, N-[2-[4-(N-Acetyl-DL-leucylamino)phenyl]-4-hydroxy-5-pyrimidinylcarbonyl]amoxicillin], the “Minimal Inhibitory Concentration” value in experiment [1] is given as 25; in experiment [2] it was more than 50; in experiment [3] it was 1.6; in experiment [4] it was 25; in experiment [5], 3.1; in experiment [6], 3.1. Moreover, the “Minimal Inhibitory Concentration” value in experiment [7] turned out to be 3.1.

On to `CSCCC(NC(C)=O)C(=O)Nc1ccc(-c2ncc(C(=O)N[C@@H](C(=O)N[C@@H]3C(=O)N4[C@@H]3SC(C)(C)[C@@H]4C(=O)O)c3ccc(O)cc3)c(O)n2)cc1` (mixture of isomers) [N-Acetyl-DL-Methionyl, N-[2-[4-(N-acetyl-DL-methionylamino)phenyl]-4-hydroxy-5-pyrimidinylcarbonyl]amoxicillin], for which the “Minimal Inhibitory Concentration” value came out at 12.5 in experiment [1]; 50 in experiment [2]; 1.6 in experiment [3]; 12.5 in experiment [4]; 1.6 in experiment [5]; 3.1 in experiment [6]. Further, the “Minimal Inhibitory Concentration” value in experiment [7] was found to be 1.6.

In the case of `CC(=O)N1CCCC1C(=O)Nc1ccc(-c2ncc(C(=O)N[C@@H](C(=O)N[C@@H]3C(=O)N4[C@@H]3SC(C)(C)[C@@H]4C(=O)O)c3ccc(O)cc3)c(O)n2)cc1` (mixture of isomers) [N-Acetyl-DL-Prolyl, N-[2-[4-(N-Acetyl-DL-prolylamino)phenyl]-4-hydroxy-5-pyrimidinylcarbonyl]amoxicillin], the “Minimal Inhibitory Concentration” value amounted to 12.5 in experiment [1]; 50 in experiment [2]; 0.8 in experiment [3]; 12.5 in experiment [4]; 1.6 in experiment [5]; 1.6 in experiment [6]. The “Minimal Inhibitory Concentration” value in experiment [7] stood at 1.6.

Consider `CC(=O)NC(C(=O)Nc1ccc(-c2ncc(C(=O)N[C@@H](C(=O)N[C@@H]3C(=O)N4[C@@H]3SC(C)(C)[C@@H]4C(=O)O)c3ccc(O)cc3)c(O)n2)cc1)C(C)C` (mixture of isomers) [N-Acetyl-DL-Valyl, N-[2-[4-(N-Acetyl-DL-valylamino)phenyl]-4-hydroxy-5-pyrimidinylcarbonyl]amoxicillin], for which the “Minimal Inhibitory Concentration” value was 25 in experiment [1]; more than 50 in experiment [2]; 3.1 in experiment [3]; 25 in experiment [4]; 1.6 in experiment [5]; 3.1 in experiment [6]. In addition, in experiment [7], the “Minimal Inhibitory Concentration” value is 1.6.

Regarding `CC1(C)S[C@@H]2[C@H](NC(=O)[C@H](NC(=O)c3cnc(-c4ccc(NC(=O)[C@@H]5CCC(=O)N5)cc4)nc3O)c3ccc(O)cc3)C(=O)N2[C@H]1C(=O)O` [5-Oxo-L-Prolyl, N-[2-[4-((5-oxo-L-prolyl)amino)phenyl]-4-hydroxy-5-pyrimidinylcarbonyl]amoxicillin], the “Minimal Inhibitory Concentration” value in experiment [1] is 6.3; in experiment [2], 50; in experiment [3], 0.8; in experiment [4], 12.5; in experiment [5], 0.8; in experiment [6], 0.8. For the same compound, the “Minimal Inhibitory Concentration” value in experiment [7] stood at 1.6.

For `CC1(C)S[C@@H]2[C@H](NC(=O)[C@H](NC(=O)c3cnc(-c4ccc(NC(=O)CN5CCCC5=O)cc4)nc3O)c3ccc(O)cc3)C(=O)N2[C@H]1C(=O)O` [(2-Oxo-1-pyrrolidinyl)acetyl, N-[2-[4-[(2-Oxo-1-pyrrolidinyl)acetylamino]phenyl]-4-hydroxy-5-pyrimidinylcarbonyl]amoxicillin], the “Minimal Inhibitory Concentration” value amounted to 12.5 in experiment [1]; 25 in experiment [2]; 1.6 in experiment [3]; 25 in experiment [4]; 1.6 in experiment [5]; 1.6 in experiment [6]. Further, the “Minimal Inhibitory Concentration” value in experiment [7] was found to be 3.1.

Consider `CC(=O)NCC(=O)Nc1ccc(-c2ncc(C(=O)N[C@@H](C(=O)N[C@@H]3C(=O)N4[C@@H]3SC(C)(C)[C@@H]4C(=O)O)c3ccc(O)cc3)c(O)n2)cc1` [N-Acetyl Glycyl], for which the “Minimal Inhibitory Concentration” value in experiment [1] is 6.3; in experiment [2], 50; in experiment [3], 0.8; in experiment [4] it was 6.3; in experiment [5], 1.6; in experiment [6], 1.6. In addition, the “Minimal Inhibitory Concentration” value in experiment [7] was 6.3.

On to `CC(=O)N[C@@H](C)C(=O)Nc1ccc(-c2ncc(C(=O)N[C@@H](C(=O)N[C@@H]3C(=O)N4[C@@H]3SC(C)(C)[C@@H]4C(=O)O)c3ccc(O)cc3)c(O)n2)cc1` [N-Acetyl-L-Alanyl, N-[2-[4-(N-acetyl-L-alanylamino)phenyl]-4-hydroxy-5-pyrimidinylcarbonyl]amoxicillin], for which the “Minimal Inhibitory Concentration” value in experiment [1] was found to be 6.3; in experiment [2], 50; in experiment [3] it was 0.4; in experiment [4] it was 12.5; in experiment [5], 1.6; in experiment [6] it was 0.8. For the same compound, the “Minimal Inhibitory Concentration” value in experiment [7] is listed as 0.8.

Consider `CC(=O)N1CC(O)C[C@H]1C(=O)Nc1ccc(-c2ncc(C(=O)N[C@@H](C(=O)N[C@@H]3C(=O)N4[C@@H]3SC(C)(C)[C@@H]4C(=O)O)c3ccc(O)cc3)c(O)n2)cc1` (stereo partly drawn) [N-Acetyl-L-Hydroxyprolyl, N-[2-[4-(N-Acetyl-L-hydroxyprolylamino)phenyl]-4-hydroxy-5-pyrimidinylcarbonyl]amoxicillin], for which the “Minimal Inhibitory Concentration” value in experiment [1] was 12.5; in experiment [2], 50; in experiment [3] it was 0.8; in experiment [4], 50; in experiment [5], 1.6; in experiment [6] it was 3.1. For the same compound, in experiment [7], the “Minimal Inhibitory Concentration” value is reported as 1.6.

Regarding `CC(=O)N[C@@H](Cc1ccc(O)cc1)C(=O)Nc1ccc(-c2ncc(C(=O)N[C@@H](C(=O)N[C@@H]3C(=O)N4[C@@H]3SC(C)(C)[C@@H]4C(=O)O)c3ccc(O)cc3)c(O)n2)cc1` [N-Acetyl-L-Tyrosyl, N-[2-[4-(N-Acetyl-L-tyrosylamino)phenyl]-4-hydroxy-5-pyrimidinylcarbonyl]amoxicillin], the “Minimal Inhibitory Concentration” value is listed as 12.5 in experiment [1]; 50 in experiment [2]; 1.6 in experiment [3]; 12.5 in experiment [4]; 1.6 in experiment [5]; 3.1 in experiment [6]. Besides, the “Minimal Inhibitory Concentration” value in experiment [7] was found to be 3.1.

Regarding `CC(=O)NCCC(=O)Nc1ccc(-c2ncc(C(=O)N[C@@H](C(=O)N[C@@H]3C(=O)N4[C@@H]3SC(C)(C)[C@@H]4C(=O)O)c3ccc(O)cc3)c(O)n2)cc1` [N-Acetyl-beta-Alanyl, N-[2-[4-(N-Acetyl-beta-alanylamino)phenyl]-4-hydroxy-5-pyrimidinylcarbonyl]amoxicillin], the “Minimal Inhibitory Concentration” value in experiment [1] was found to be 6.3; in experiment [2], 25; in experiment [3], 0.4; in experiment [4], 6.3; in experiment [5], 0.8; in experiment [6] it was 0.8. Besides, the “Minimal Inhibitory Concentration” value in experiment [7] is reported as 0.8.
